From the CheMixHub viscosity set
Where “and” joins values, the source holds several entries; their conditions need not be identical. Identical values can stand only once.

C#CCO
viscosity [mPa·s]
Details | 303.15 K | 308.15 K | 313.15 K | 318.15 K | 323.15 K
101 kPa | 1.345 | 1.214 | 1.103 | 1.01 | 0.9277
101.32 kPa | – | 1.221 | 1.12 | 1.017 | 0.9331

C1COCO1
viscosity
Details | 298.15 K | 303.15 K | 308.15 K | 313.15 K | 318.15 K | 323.15 K
101 kPa | 0.587 mPa·s | 0.62 mPa·s | 0.58 mPa·s and 0.513 mPa·s and 0.5128 mPa·s | 0.55 mPa·s | 0.53 mPa·s and 0.458 mPa·s and 0.458 mPa·s | 0.4183 mPa·s and 0.51 mPa·s
101.3 kPa | 0.5919 mPa·s | – | – | 0.5 mPa·s | – | –

CC(=O)c1ccccc1
viscosity
Details | 303.15 K | 308.15 K | 313.15 K | 323.15 K
100 kPa | 1.455 mPa·s | 1.415 mPa·s | 1.233 mPa·s and 1.269 mPa·s | 1.061 mPa·s
101 kPa | 1.533 mPa·s (2×) and 1.533 mPa·s and 1.533 mPa·s | – | 1.266 mPa·s and 1.266 mPa·s and 1.269 mPa·s | 1.051 mPa·s
101.3 kPa | – | – | 1.317 mPa·s | 1.285 mPa·s

CC(N)CN (centres undefined)
viscosity
Details | 293.15 K | 298.15 K | 303.15 K | 308.15 K | 313.15 K | 318.15 K | 323.15 K
101 kPa | – | 1.481 mPa·s | 1.314 mPa·s and 1.325 mPa·s | 1.175 mPa·s and 1.192 mPa·s | 1.058 mPa·s and 1.084 mPa·s | 0.9597 mPa·s and 0.9891 mPa·s | 0.9091 mPa·s
101.33 kPa | 1.61 mPa·s | 1.49 mPa·s and 1.47 mPa·s | 1.31 mPa·s and 1.34 mPa·s | 1.19 mPa·s and 1.13 mPa·s | 1.06 mPa·s and 1.06 mPa·s | 0.96 mPa·s and 0.97 mPa·s | –

CCC(C)C(C)C (centres undefined)
Details | viscosity [mPa·s]
298.15 K, 101.33 kPa | 0.3898

CCC(O)CC
viscosity [mPa·s]
Details | 293.15 K | 298.15 K | 303.15 K | 308.15 K | 313.15 K | 318.15 K | 323.15 K
101 kPa | 4.646 | 4.81 | 3.506 | 2.773 | 2.23 | 1.895 | 1.528
101.33 kPa | – | – | 3.852 | – | 2.272 | – | 1.543

CCCCCCCCC
viscosity
Details | 298.15 K | 303.15 K | 308.15 K | 313.15 K | 318.15 K | 323.15 K
100 kPa | 0.668 mPa·s | 0.627 mPa·s | – | 0.556 mPa·s | 0.526 mPa·s | 0.498 mPa·s
101 kPa | 0.6626 mPa·s and 0.6588 mPa·s and 0.668 mPa·s | 0.641 mPa·s | 0.5808 mPa·s and 0.588 mPa·s and 0.5974 mPa·s | 0.5652 mPa·s | 0.512 mPa·s | 0.5073 mPa·s
101.33 kPa | – | – | – | 0.535 mPa·s | 0.505 mPa·s | –

CCCCCCCCc1ccccc1
102 kPa
Details | viscosity [mPa·s]
293.15 K | 2.57
303.15 K | 2.08
313.15 K | 1.73
323.15 K | 1.46

CCCOCC(C)O (centres undefined)
viscosity [mPa·s]
Details | 298.15 K | 303.15 K | 308.15 K | 318.15 K
100 kPa | 2.451 | 2.094 | 1.885 | –
101.33 kPa | 2.389 | – | 1.822 | 1.416

CCCOCCC
Details | viscosity [mPa·s]
298.15 K, 101.33 kPa | 0.4024

CCN(CCO)CCO
101 kPa
Details | viscosity [mPa·s]
303.15 K | 48.27
308.15 K | 36.72
313.15 K | 28.36
318.15 K | 22.31
323.15 K | 17.78

CC[NH2+]CC.O=S(=O)([O-])O
101 kPa
Details | viscosity [mPa·s]
303.15 K | 28.9
308.15 K | 24.6
313.15 K | 21.9

CN(C)P(=O)(N(C)C)N(C)C
Details | viscosity [mPa·s]
303.15 K, 101.3 kPa | 2.928

CN1CCCCCC1=O
Details | viscosity [mPa·s]
298.16 K, 101 kPa | 4.92

COCOC
viscosity [mPa·s]
Details | 293.15 K | 298.15 K | 303.1 K | 303.15 K | 308.15 K | 313.15 K
100 kPa | 0.371 | 0.357 | – | 0.346 | 0.337 | 0.329
101 kPa | – | – | 0.304 | – | – | –

Cc1cccc(C)n1
viscosity
Details | 101 kPa | 101.33 kPa
293.15 K | – | 0.8373 mPa·s
295.15 K | 0.929 mPa·s | –
298.15 K | 0.8777 mPa·s | 0.7813 mPa·s
298.2 K | 0.806 mPa·s | –
300.12 K | – | 0.847 mPa·s
303 K | 0.7635 mPa·s | –
303.12 K | – | 0.833 mPa·s
303.24 K | 0.753 mPa·s | –
306.99 K | – | 0.774 mPa·s
308.15 K | – | 0.6861 mPa·s
308.26 K | 0.708 mPa·s | –
313 K | 0.6811 mPa·s and 0.6687 mPa·s | –
313.34 K | 0.663 mPa·s | –
318.15 K | – | 0.6032 mPa·s
318.39 K | 0.627 mPa·s | –
323 K | 0.6095 mPa·s and 0.5945 mPa·s | –

ClC(Cl)C(Cl)(Cl)Cl
101 kPa
Details | viscosity [mPa·s]
298.15 K | 2.26
303.15 K | 1.971

O=S(Cl)Cl
Details | viscosity [mPa·s]
298.15 K, 101 kPa | 0.6194
